The source of these data is patent publication US11401271B2, “Fused heterocyclic compound, pyrazole-ring-containing fused heterocyclic compound, agricultural composition containing thereof, and method of using the composition” (SOUTH CHINA AGRICULTURAL UNIVERSITY, priority 2017, dated 2022).

Like-named read-outs stand apart in the source and are kept apart here.

Common to all, as to type: in vivo
One data set has as its system Spodoptera exigua. Put plainly: whole plant or invertebrate. The settings on record: Spodoptera exigua, read-out: Spodoptera exigua Mortality (%) 500 ppm. The procedure, abridged:
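Leaf immersion feeding: second-instar larvae (about 35 per vessel, triplicate) kept at 28° C on discs treated with 500 ppm test solution in 0.05% Tween-80. Mortality at 24 h, calculated relative to surviving larvae in the solvent control.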

The test system of another data set is Bombyx mori L. In words: Toxicity test on 2nd-instar larvae of Bombyx mori L., leaf immersion feeding method. The settings on record: 1000 ppm, 24 hours. The method, then:
(1) Toxicity Test on 2nd-Instar Larvae of Bombyx mori L.
Bombyx mori L. is an important economic insect sensitive to pesticides in an agricultural ecosystem, and is also one of the non-target organisms of environmental ecology listed in pesticide registration of China. The 2nd-instar larvae of Bombyx mori L. were used as test objects and tested by using a leaf immersion feeding method.
Operation process: Samples were weighed accurately, and respectively added with 200 μL of dimethyl sulfoxide to prepare 10 g/L mother liquor which was diluted into a concentration of 1000 ppm with an aqueous solution containing 0.05% of Tween-80 during the test. Young cotyledons of mulberries were collected, washed and air-dried, immersed in a liquid medicine, taken out after 5 seconds, naturally air-dryed, and then transferred into a clean vessel. About 35 2nd -instar larvae of Bombyx mori L. were put into the vessel and fed at a constant temperature of 25° C. Each concentration was repeated 3 times, and an aqueous solution containing 0.05% of Tween-80 was used as a control group. After being treated for 24 hours, a number of dead Bombyx mori L. was counted, and a mortality (%) was calculated according to a formula that mortality (%)=(number of live larvae in the control group −number of treated live larvae)/number of live larvae in the control group * 100%.

The next data set has as its system Apis cernan. In words: Toxicity test on adult worker bees of Apis cernan, small beaker method. Conditions: 500 ppm, 48 hours. The method, then: (2) Toxicity Test on Adult Worker Bees of Apis cernan.
Adult worker bees of Apis cernan having the same size were selected for test. The worker bees were collected from beekeeping boxes in the daystart of the test day and tested by using a small beaker method.
Operation process: A small amount of absorbent cotton was put into a 5 mL small beaker, 5 mL of a test liquid medicine (a concentration of 500 ppm) was dropped into the absorbent cotton, and stirred gently to make the absorbent cotton completely wet but not leached obviously, then the small beaker was put into a 500 mL large beaker, then 15 worker bees were put into the large beaker, and finally the large beaker was sealed with gauze. After treatment, the large beaker was placed in a dark room of an artificial climate box. After taking the medicine for 48 hours, a number of live and dead worker bees were investigated.

Another data set concerns Aphis craccivora. Put plainly: whole plant or invertebrate. The settings on record: Aphis craccivora, read-out: Aphis craccivora Mortality (%) 500 ppm. The procedure, abridged:
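Mortality scored 24 h after treatment as the reduction in live aphids versus a 0.05% Tween-80 control; three replicates, 23° C. Treatment was a 5 s immersion of wingless adults on bean sprouts in 500 ppm test solution containing 0.05% Tween-80, followed by air-drying.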

Another data set concerns Plutella xylostella. Put plainly: whole plant or invertebrate. Conditions: Plutella xylostella, read-out: Plutella xylostella Mortality (%) 500 ppm. The procedure, abridged:
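Leaf immersion feeding test: 2nd-instar larvae (about 35 per vessel, 3 replicates) kept at 28° C. on 1.0 cm cabbage discs soaked 5 s in a 500 ppm solution with 0.05% Tween-80. Mortality after 24 h of exposure, calculated relative to live larvae in the Tween-80 control.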

The subject of a further data set is Solenopsis invicta. Put plainly: whole plant or invertebrate. The settings on record: Solenopsis invicta, water test tube poison-feeding. The procedure, abridged:
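Mortality (%) of Solenopsis invicta, computed against live counts in control tubes, was recorded 24 h and 72 h after treatment at 25 °C. Compound was offered by oral feeding in test tubes at 100 ppm, diluted from a 10 g/L DMSO stock into water with 5% honey and 0.05% Tween-80.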

The mark [1] stands for this setting: 24 h, read-out: Solenopsis invicta Mortality (%) 100 ppm 24 h, 100 ppm, 24 h.
The mark [2] stands for this setting: 72 h, read-out: Solenopsis invicta Mortality (%) 100 ppm 72 h, 100 ppm, 72 h.

In the case of `Nc1cc2n(n1)-c1cnccc1C(F)(CC(F)(F)F)N2` (stereo not shown) [Compound A36], the mortality at 500 ppm in the data set with Spodoptera exigua (24 h), in the data set on Aphis craccivora (24 h) and in the data set with Plutella xylostella was 100% throughout. Besides, the “Toxicity determination Bombyx mori L. Mortality (%)” value with Bombyx mori L. turned out to be 3%. Moreover, the “Toxicity determination Apis cernan Mortality (%)” value in the data set with Apis cernan amounted to 0%. Also, the mortality at 100 ppm with Solenopsis invicta (setting [1]) was determined as 44%; in the data set with Solenopsis invicta (setting [2]), 100%.

As for `O=[N+]([O-])c1cc2n(n1)-c1cnccc1C(F)(CC(F)(F)F)N2` (stereo not shown) [Compound A43], the mortality at 500 ppm with Spodoptera exigua (24 h), in the data set with Aphis craccivora (24 h) and with Plutella xylostella was 100% throughout. In addition, in the data set on Bombyx mori L., the “Toxicity determination Bombyx mori L. Mortality (%)” value was determined as 3%. The “Toxicity determination Apis cernan Mortality (%)” value in the data set with Apis cernan came to 8%. Also, the mortality at 100 ppm with Solenopsis invicta (setting [1]) was 20%; in the data set with Solenopsis invicta (setting [2]), 100%.

As to `CCOC(=O)c1c(SC)nn2c1NC(C)(C)c1nc(F)ncc1-2` [Compound A44], the mortality at 500 ppm in the data set with Spodoptera exigua (24 h) was 90%; in the data set with Aphis craccivora (24 h), 100%; in the data set on Plutella xylostella, 100%. Moreover, in the data set on Bombyx mori L., the “Toxicity determination Bombyx mori L. Mortality (%)” value was 8%. The “Toxicity determination Apis cernan Mortality (%)” value in the data set with Apis cernan stood at 8%. Further, the mortality at 100 ppm in the data set with Solenopsis invicta (setting [1]) amounted to 26%; in the data set with Solenopsis invicta (setting [2]), 93%.

On to `CSc1nn2c(c1S(=O)(=O)c1ccccc1)NC(C)(C)c1nc(F)ncc1-2` [Compound A45], for which the mortality at 500 ppm in the data set on Spodoptera exigua (24 h), in the data set on Aphis craccivora (24 h) and in the data set on Plutella xylostella was 100% in each case. Further, the “Toxicity determination Bombyx mori L. Mortality (%)” value with Bombyx mori L. is 10%. Besides, the “Toxicity determination Apis cernan Mortality (%)” value with Apis cernan is 11%. Further, the mortality at 100 ppm in the data set with Solenopsis invicta (setting [1]) was determined as 24%; in the data set with Solenopsis invicta (setting [2]), 100%.

In the case of `CC1(C)Nc2c(C#N)c(SCc3ccccc3)nn2-c2cnc(F)nc21` [Compound A46], the figures for the mortality at 500 ppm in the data set on Spodoptera exigua (24 h), with Aphis craccivora (24 h) and in the data set with Plutella xylostella were 100%, 100% and 86%, respectively. In addition, the “Toxicity determination Bombyx mori L. Mortality (%)” value with Bombyx mori L. is 7%. The “Toxicity determination Apis cernan Mortality (%)” value in the data set with Apis cernan came to 2%. For the same compound, the mortality at 100 ppm turned out to be 20% with Solenopsis invicta (setting [1]) and 87% in the data set on Solenopsis invicta (setting [2]).

As for `COc1ccc(-c2cn3c(c2C#N)NC(C#N)(C#N)c2ccc([N+](=O)[O-])cc2-3)cc1` [Compound B1, 2-(4-methoxybenzene)-8-nitropyrrole[1,2-α]quinazoline-3,5,5(4H)-tricyano], the mortality at 500 ppm with Spodoptera exigua (24 h), in the data set on Aphis craccivora (24 h) and in the data set on Plutella xylostella was 100% throughout. Besides, in the data set on Bombyx mori L., the “Toxicity determination Bombyx mori L. Mortality (%)” value amounted to 0%. In the data set with Apis cernan, the “Toxicity determination Apis cernan Mortality (%)” value was 0%. Also, the mortality at 100 ppm in the data set with Solenopsis invicta (setting [1]) worked out at 20%; in the data set on Solenopsis invicta (setting [2]), 100%.

As for `COc1ccc(-c2cn3c(c2C#N)N(C)C(C#N)(C#N)c2ccc([N+](=O)[O-])cc2-3)cc1` [Compound B2], the figures for the mortality at 500 ppm in the data set with Spodoptera exigua (24 h), in the data set with Aphis craccivora (24 h) and in the data set on Plutella xylostella were 90%, 93% and 100%, respectively. Besides, the “Toxicity determination Bombyx mori L. Mortality (%)” value in the data set with Bombyx mori L. worked out at 3%. For the same compound, the “Toxicity determination Apis cernan Mortality (%)” value with Apis cernan is 4%. In addition, the results for the mortality at 100 ppm in the data set on Solenopsis invicta (setting [1]) and in the data set on Solenopsis invicta (setting [2]) were 26% and 93%, respectively.

With `COc1ccc(-c2cn3c(c2C(C)=O)NC(C#N)(C#N)c2ccc([N+](=O)[O-])cc2-3)cc1` [Compound B3], the mortality at 500 ppm in the data set with Spodoptera exigua (24 h), with Aphis craccivora (24 h) and with Plutella xylostella was 100% in each case. Moreover, in the data set with Bombyx mori L., the “Toxicity determination Bombyx mori L. Mortality (%)” value was 0%. For the same compound, the “Toxicity determination Apis cernan Mortality (%)” value in the data set with Apis cernan stood at 3%. Besides, the mortality at 100 ppm was found to be 24% with Solenopsis invicta (setting [1]) and 100% in the data set on Solenopsis invicta (setting [2]).

For `COc1ccc(-c2cn3c(c2C(C)=O)NC(C(N)=O)(C(N)=O)c2ccc([N+](=O)[O-])cc2-3)cc1` [Compound B4], the mortality at 500 ppm in the data set on Spodoptera exigua (24 h) was found to be 100%; in the data set on Aphis craccivora (24 h) it was 100%; in the data set with Plutella xylostella, 86%. In the data set on Bombyx mori L., the “Toxicity determination Bombyx mori L. Mortality (%)” value amounted to 0%. In addition, in the data set with Apis cernan, the “Toxicity determination Apis cernan Mortality (%)” value stood at 0%. Also, the mortality at 100 ppm in the data set with Solenopsis invicta (setting [1]) was determined as 20%; in the data set with Solenopsis invicta (setting [2]) it was 88%.

Take `N#Cc1cn2c(c1C#N)NC(C#N)(C#N)c1ccc([N+](=O)[O-])cc1-2` [Compound B6]: the mortality at 500 ppm in the data set with Spodoptera exigua (24 h) came out at 100%; with Aphis craccivora (24 h) it was 100%; with Plutella xylostella, 90%. For the same compound, the “Toxicity determination Bombyx mori L. Mortality (%)” value with Bombyx mori L. is reported as 4%. Besides, the “Toxicity determination Apis cernan Mortality (%)” value in the data set on Apis cernan was found to be 5%. Besides, the mortality at 100 ppm in the data set on Solenopsis invicta (setting [1]) stood at 44%; in the data set on Solenopsis invicta (setting [2]), 100%.

Take `N#Cc1cn2c(c1C#N)NC(C#N)(C#N)c1ccc(N)cc1-2` [Compound B7]: the mortality at 500 ppm in the data set with Spodoptera exigua (24 h), with Aphis craccivora (24 h) and with Plutella xylostella was 100% throughout. The “Toxicity determination Bombyx mori L. Mortality (%)” value in the data set with Bombyx mori L. is on record as 6%. For the same compound, the “Toxicity determination Apis cernan Mortality (%)” value in the data set with Apis cernan worked out at 6%. Also, the mortality at 100 ppm amounted to 38% with Solenopsis invicta (setting [1]) and 100% with Solenopsis invicta (setting [2]).

With `C=CC(=O)Nc1ccc2c(c1)-n1cc(C#N)c(C#N)c1NC2(C#N)C#N` [Compound B8], the mortality at 500 ppm with Spodoptera exigua (24 h), in the data set on Aphis craccivora (24 h) and in the data set with Plutella xylostella was 100% in each case. Besides, the “Toxicity determination Bombyx mori L. Mortality (%)” value in the data set with Bombyx mori L. amounted to 5%. Besides, the “Toxicity determination Apis cernan Mortality (%)” value in the data set with Apis cernan is 4%. Also, the mortality at 100 ppm was found to be 45% with Solenopsis invicta (setting [1]) and 100% in the data set on Solenopsis invicta (setting [2]).

As for `N#Cc1cn2c(c1C#N)NC(C#N)(C#N)c1ccc(Br)cc1-2` [Compound B9], the mortality at 500 ppm with Spodoptera exigua (24 h), with Aphis craccivora (24 h) and with Plutella xylostella was 100% each time. For the same compound, the “Toxicity determination Bombyx mori L. Mortality (%)” value in the data set on Bombyx mori L. came out at 0%. Besides, the “Toxicity determination Apis cernan Mortality (%)” value in the data set on Apis cernan was 5%. Further, the mortality at 100 ppm amounted to 38% in the data set on Solenopsis invicta (setting [1]) and 100% with Solenopsis invicta (setting [2]).

`CS(=O)(=O)Nc1ccc2c(c1)-n1cc(C#N)c(C#N)c1NC2(C#N)C#N` [Compound B10]: the mortality at 500 ppm in the data set with Spodoptera exigua (24 h) came to 95%; in the data set with Aphis craccivora (24 h), 100%; in the data set with Plutella xylostella, 100%. For the same compound, the “Toxicity determination Bombyx mori L. Mortality (%)” value in the data set on Bombyx mori L. amounted to 3%. Moreover, the “Toxicity determination Apis cernan Mortality (%)” value in the data set with Apis cernan turned out to be 3%. The mortality at 100 ppm came to 30% in the data set on Solenopsis invicta (setting [1]) and 90% in the data set with Solenopsis invicta (setting [2]).

With `COC(=O)Nc1ccc2c(c1)-n1cc(C#N)c(C#N)c1NC2(C#N)C#N` [Compound B11], the mortality at 500 ppm was 100% in the data set on Spodoptera exigua (500 ppm, 2nd-instar larvae, leaf immersion feeding, 24 hours); 100% in the data set on Aphis craccivora (500 ppm, wingless adults, impregnation method, 24 hours); 100% in the data set on Plutella xylostella (500 ppm, 2nd-instar larvae, leaf immersion feeding). Moreover, in the data set on Bombyx mori L., the “Toxicity determination Bombyx mori L. Mortality (%)” value was 7%. Moreover, the “Toxicity determination Apis cernan Mortality (%)” value in the data set on Apis cernan was 3%. Moreover, the mortality at 100 ppm in the data set on Solenopsis invicta (24 h, 100 ppm, 24 h, read-out: Solenopsis invicta Mortality (%) 100 ppm 24 h) was determined as 33%; with Solenopsis invicta (72 h, 100 ppm, 72 h, read-out: Solenopsis invicta Mortality (%) 100 ppm 72 h), 95%.

For `CNC(=O)Nc1ccc2c(c1)-n1cc(C#N)c(C#N)c1NC2(C#N)C#N` [Compound B12], the mortality at 500 ppm with Spodoptera exigua (24 h), with Aphis craccivora (24 h) and in the data set with Plutella xylostella was 100% each time. Besides, the “Toxicity determination Bombyx mori L. Mortality (%)” value in the data set on Bombyx mori L. is 5%. In addition, the “Toxicity determination Apis cernan Mortality (%)” value with Apis cernan stood at 6%. The mortality at 100 ppm in the data set with Solenopsis invicta (setting [1]) turned out to be 40%; in the data set on Solenopsis invicta (setting [2]), 100%.

Broadly, the mortality is the share of the test organisms that died.
